# Target: T1, c-Met kinase (recombinant c-Met) (Homo sapiens, UniProt P08581)
# T1 construct: 0.27 nM recombinant c-Met
# Experiment: In vitro kinase assay I (homogeneous time-resolved fluorescence tyrosine kinase assay)
# Assay type: biochemical
# In short: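 Biotinylated peptide (0.5 μM) phosphorylated by 0.2 nM recombinant c-Met with 50 μM MgATP, 60 min at room temperature, pH 7.4, 5% DMSO. EDTA stop; HTRF read with Eu-anti-phosphotyrosine antibody and streptavidin-APC. IC50 from 4-parameter logistic fit.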
# T1 sequence (P08581 25-1390): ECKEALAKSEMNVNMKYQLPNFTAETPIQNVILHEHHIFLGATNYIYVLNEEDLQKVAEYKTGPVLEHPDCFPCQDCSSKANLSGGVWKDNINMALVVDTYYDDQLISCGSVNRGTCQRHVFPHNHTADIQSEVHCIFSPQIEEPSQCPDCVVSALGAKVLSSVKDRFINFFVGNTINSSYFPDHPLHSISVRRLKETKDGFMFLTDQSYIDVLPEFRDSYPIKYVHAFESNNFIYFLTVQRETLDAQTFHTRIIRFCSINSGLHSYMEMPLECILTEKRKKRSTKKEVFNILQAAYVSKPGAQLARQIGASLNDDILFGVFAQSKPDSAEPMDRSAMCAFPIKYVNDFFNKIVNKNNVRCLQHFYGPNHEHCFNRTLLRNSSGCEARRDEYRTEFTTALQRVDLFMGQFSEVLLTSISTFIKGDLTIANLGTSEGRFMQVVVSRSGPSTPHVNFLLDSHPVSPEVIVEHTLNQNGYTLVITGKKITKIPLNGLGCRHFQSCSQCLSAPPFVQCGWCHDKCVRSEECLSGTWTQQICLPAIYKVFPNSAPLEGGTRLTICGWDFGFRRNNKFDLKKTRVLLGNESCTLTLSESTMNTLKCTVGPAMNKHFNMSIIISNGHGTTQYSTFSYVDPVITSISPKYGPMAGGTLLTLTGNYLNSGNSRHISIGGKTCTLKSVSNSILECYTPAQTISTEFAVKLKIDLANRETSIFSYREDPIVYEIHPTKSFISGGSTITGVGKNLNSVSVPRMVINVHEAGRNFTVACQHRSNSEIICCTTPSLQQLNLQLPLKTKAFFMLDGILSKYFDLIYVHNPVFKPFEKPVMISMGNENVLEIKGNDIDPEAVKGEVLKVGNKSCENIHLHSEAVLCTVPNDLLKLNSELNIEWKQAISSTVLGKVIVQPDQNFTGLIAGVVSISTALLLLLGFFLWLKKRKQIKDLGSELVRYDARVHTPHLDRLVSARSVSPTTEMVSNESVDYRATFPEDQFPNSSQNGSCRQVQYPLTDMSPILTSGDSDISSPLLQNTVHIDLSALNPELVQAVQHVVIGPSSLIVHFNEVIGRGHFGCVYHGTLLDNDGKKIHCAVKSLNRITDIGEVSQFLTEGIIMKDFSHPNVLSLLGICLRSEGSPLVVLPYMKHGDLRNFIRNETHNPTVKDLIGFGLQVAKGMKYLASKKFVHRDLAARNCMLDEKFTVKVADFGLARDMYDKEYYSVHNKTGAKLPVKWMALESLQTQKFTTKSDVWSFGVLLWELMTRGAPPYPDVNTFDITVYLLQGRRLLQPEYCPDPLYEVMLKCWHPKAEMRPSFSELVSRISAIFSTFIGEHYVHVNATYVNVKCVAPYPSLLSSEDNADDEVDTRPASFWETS
row,Structure (SMILES),IC50 [nM]
1,"N#Cc1cccc(-n2ccc(=O)c(Cc3cccc(NC(=O)OCCC4CCOCC4)c3)n2)c1 [Example 598, 2-(tetrahydro-2H-pyran-4-yl)ethyl (3-{[1-(3-cyanophenyl)-4-oxo-1,4-dihydropyridazin-3-yl]methyl}phenyl)carbamate]",< 100
2,"CCCn1cnc(-c2cccc(Cc3nn(-c4cnn(C)c4)ccc3=O)c2)n1 [Example 57, 1-(1-methyl-1H-pyrazol-4-yl)-3-[3-(1-propyl-1H-1,2,4-traizol-3-yl)benzyl]pyridazin-4(1H)-one]",< 100
3,"O=c1ccn(-c2ccc(F)c(F)c2)nc1Cc1cccc(-c2ncc(OCC3(O)CCOCC3)cn2)c1 [Example 373, 1-(3,4-difluorophenyl)-3-(3-{5-[(4-hydroxytetrahydro-2H-pyran-4-yl)methoxy]pyrimidin-2-yl}benzyl)pyridazin-4(1H)-one]",< 100
4,"COCCOc1cnc2ccc(Cc3nn(-c4cnn(C)c4)ccc3=O)cc2c1 [Example 61, 3-{[3-(2-methoxyethoxy)quinolin-6-yl]methyl}-1-(1-methyl-1H-pyrazol-4-yl)pyridazin-4(1H)-one]",100 to 1000
5,"CCOCCOc1cnc(-c2cccc(Cc3nn(-c4ccc(F)c(F)c4)ccc3=O)c2)nc1 [Example 321, 1-(3,4-difluorophenyl)-3-{3-[5-(2-ethoxyethoxy)pyrimidin-2-yl]benzyl}pyridazin-4(1H)-one]",< 100
6,"Cn1cc(-n2ccc(=O)c(Cc3cccc(NC(=O)NCc4ccccc4)c3)n2)cn1 [Example 490, 1-benzyl-3-(3-{[1-(1-methyl-1H-pyrazol-4-yl)-4-oxo-1,4-dihydropyridazin-3-yl]methyl}phenyl)urea]",< 100
7,"O=c1ccn(-c2ccc(F)c(F)c2)nc1Cc1cccc(-c2ncc(OCC3CCOC3)cn2)c1 (racemic) [Example 328, rac-1-(3,4-difluorophenyl)-3-{3-[5-(tetrahydrofuran-3-ylmethoxy)pyrimidin-2-yl]benzyl}pyridazin-4(1H)-one]",< 100
8,"Cc1nccc(-c2cccc(Cc3nn(-c4cnn(C)c4)ccc3=O)c2)n1 [Example 40, 1-(1-methyl-1H-pyrazol-4-yl)-3-[3-(2-methylpyrimidin-4-yl)benzyl]pyridazin-4(1H)-one]",1000 to 3000
9,"CCn1cc(-n2ccc(=O)c(C(C)c3cccc(-c4ncc(OCC5(F)CCN(C(=O)OC(C)(C)C)CC5)cn4)c3)n2)cn1 (single isomer, unassigned) [Example 290, tert-butyl 4-({[2-(3-{(1R or S)-1-[1-(1-ethyl-1H pyrazol-4-yl)-4-oxo-1,4-dihydropyridazin-3-yl]ethyl}phenyl)pyrimidin-5-yl]oxy}methyl)-4-fluoropiperidine-1-carboxylate]",< 100
10,"Cn1cc(-n2ccc(=O)c(Cc3cccc(NC(=O)OCC4(C)COC4)c3)n2)cn1 [Example 543, (3-methyloxetan-3-yl)methyl (3-{[1-(1-methyl-1H-pyrazol-4-yl)-4-oxo-1,4-dihydropyridazin-3-yl]methyl}phenyl)carbamate]",< 100
11,"CC(C)COC(=O)Nc1cccc(Cc2nn(-c3ccc(F)c(F)c3)ccc2=O)c1 [Example 505, 2-methylpropyl (3-{[1-(3,4-difluorophenyl)-4-oxo-1,4-dihydropyridazin-3-yl]methyl}phenyl)carbamate]",< 100
12,"CCn1cc(-n2ccc(=O)c(C(C)c3cccc(-c4ncc(OC5CCOC5)cn4)c3)n2)cn1 (single isomer, unassigned) [Example 297, 1-(1-ethyl-1H-pyrazol-4-yl)-3-[(1R or S)-1-{3-[5-(tetrahydrofuran-3-yloxy)pyrimidin-2-yl]phenyl}ethyl]pyridazin-4(1H)-one]",< 100
13,"CCCOC(=O)Nc1cccc(Cc2nn(-c3cncc(F)c3)ccc2=O)c1 [Example 35, propyl (3-{[1-(5-fluoropyridin-3-yl)-4-oxo-1,4-dihydropyridazin-3-yl]methyl}phenyl)carbamate]",< 100
14,"Cn1cc(-n2ccc(=O)c(Cc3cccc(-c4ncc(CN5CCOCC5)cn4)c3)n2)cn1 [Example 426, 1-(1-Methyl-1H-pyrazol-4-yl)-3-{3-[5-(morpholin-4-ylmethyl)pyrimidin-2-yl]benzyl}pyridazin-4(1H)-one]",< 100
15,"Cn1cc(-n2ccc(=O)c(Cc3cccc(-c4ncc(NC(=O)CC5CCOCC5)cn4)c3)n2)cn1 [Example 459, N-[2-(3-{[1-(1-methyl-1H-pyrazol-4-yl)-4-oxo-1,4-dihydro-pyridazin-3-yl]methyl}phenyl)pyrimidin-5-yl]-2-(tetrahydro 2H-pyran-4-yl)acetamide]",< 100
16,"Cn1cc(-n2ccc(=O)c(Cc3cccc(-c4ncc(N5CCC(F)(F)C5)cn4)c3)n2)cn1 [Example 447, 3-{3-[5-(3,3-difluoropyrrolidin-1-yl)pyrimidin-2-yl]benzyl}-1-(1-methyl-1H-pyrazol-4-yl)pyridazin-4(1H)-one]",< 100
17,"Cn1cc(-n2ccc(=O)c(Cc3cccc(-c4ncc(-c5cncc(F)c5)cn4)c3)n2)cn1 [Example 414, 3-{3-[5-(5-fluoropyridin-3-yl)pyrimidin-2-yl]benzyl}-1-(1-methyl-1H-pyrazol-4-yl)pyridazin-4(1H)-one]",< 100

row,Structure (SMILES),IC50 [nM]
1,"CN1CCN(CCCNC(=O)c2cnc(-c3cccc(Cc4nn(-c5cnn(C)c5)ccc4=O)c3)nc2)CC1 [Example 479, N-[3-(4-methyl-piperazin-1-yl)propyl]-2-(3-{[1-(1-methyl-1H-pyrazol-4-yl)-4-oxo-1,4-dihydro-pyridazin-3-yl]methyl}phenyl)pyrimidine-5-carboxamide]",< 100
2,"Cn1cc(-n2ccc(=O)c(Cc3cccc(-c4ncc(O[C@H]5CCC[C@@H]5O)cn4)c3)n2)cn1 (single isomer, unassigned) [Example 379]",< 100
3,"CCNC(=O)Nc1cccc(Cc2nn(-c3ccccc3)ccc2=O)c1 [Example 486, 1-Ethyl-3-{3-[(4-oxo-1-phenyl-1,4-dihydropyridazin-3-yl)methyl]phenyl}urea]",1000 to 3000
4,"CC(C)(O)COc1cnc(-c2cccc(Cc3nn(-c4cc(Cl)cc(C#N)c4)ccc3=O)c2)nc1 [Example 371, 3-chloro-5-[3-{3-[5-(2-hydroxy-2-methylpropoxy)pyrimidin-2-yl]benzyl}-4-oxopyridazin-1(4H)-yl]benzonitrile]",< 100
5,"CN1CCC(COc2cnc(-c3cccc(Cc4nn(-c5cccc(C#N)c5)ccc4=O)c3)nc2)CC1 [Example 171, 3-[3-(3-{5-[(1-methylpiperidin-4-yl)methoxy]pyrimidin-2-yl}benzyl)-4-oxopyridazin-1(4H)-yl]benzonitrile]",< 100
6,"CCn1cc(-n2ccc(=O)c(Cc3cccc(-c4ncc(OCC5CCN(C(=O)OC(C)(C)C)CC5)cn4)c3)n2)cn1 [Example 288, tert-butyl 4-({[2-(3-{[1-(1-ethyl-1H-pyrazol-4-yl)-4-oxo-1,4-dihydropyridazin-3-yl]methyl}phenyl)pyrimidin-5-yl]oxy}methyl)piperidine-1-carboxylate]",< 100
7,"CC(C)COC(=O)Nc1cccc(Cc2nn(-c3cnn(CCC(=O)N4CCOCC4)c3)ccc2=O)c1 [Example 703, 2-methylpropyl [3-({1-[1-(3-morpholin-4-yl-3-oxopropyl-1H-pyrazol-4-yl]-4-oxo-1,4-dihydropyridazin-3-yl}methyl)phenyl] carbamate]",< 100
8,"Cn1cc(-n2ccc(=O)c(Cc3cccc(-c4ncc(-n5cnnc5)cn4)c3)n2)cn1 [Example 473, 1-(1-Methyl-1H-pyrazol-4-yl)-3-{3-[5-(4H-1,2,4-triazol-4-yl)pyrimidin-2-yl]benzyl}pyridazin-4(1H)-one]",< 100
9,"CCCOC(=O)Nc1cccc(Cc2nn(-c3ccncc3)ccc2=O)c1 [Example 30, propyl {3-[(4-oxo-1-pyridin-4-yl-1,4-dihydropyridazin-3-yl)methyl]phenyl}carbamate]",< 100
10,"CCOc1cnc(-c2cccc(C(C)c3nn(-c4cnn(C)c4)ccc3=O)c2)nc1 (single isomer, unassigned) [Example 201, 3-{(1S or R)-1-[3-(5-ethoxypyrimidin-2-yl)phenyl]ethyl}-1-(1-methyl-1H-pyrazol-4-yl)pyridazin-4(1H)-one]",100 to 1000
11,"CCCOC(=O)Nc1cccc(Cc2nn(-c3cc(Cl)nc(Cl)c3)ccc2=O)c1 [Example 56, propyl (3-{[1-(2,6-dichloropyridin-4-yl)-4-oxo-1,4-dihydropyridazin-3-yl]methyl}phenyl)carbamate]",< 100
12,"Cn1cc(-n2ccc(=O)c(Cc3ccc4ncc(OCC5CCOC5)cc4c3)n2)cn1 (racemic) [Example 64, rac-1-(1-methyl-1H-pyrazol-4-yl)-3-{[3-(tetrahydrofuran-3-ylmethoxy)quinolin-6-yl]methyl}pyridazin-4(1H)-one]",< 100
13,"Cn1cc(-n2ccc(=O)c(Cc3cccc(-c4ncc(N5CCCC(C#N)C5)cn4)c3)n2)cn1 (racemic) [Example 446, rac-1-[2-(3-{[1-(1-methyl-1H-pyrazol-4-yl)-4-oxo-1,4-dihydropyridazin-3-yl]methyl}phenyl)pyrimidin-5-yl]piperidine-3-carbonitrile]",< 100
14,"Cn1cc(-n2ccc(=O)c(Cc3cccc(-n4cccn4)c3)n2)cn1 [Example 21, 1-(1-methyl-1H-pyrazol-4-yl)-3-[3-(1H-pyrazol-1-yl)benzyl]pyridazin-4(1H)-one]",1000 to 3000
15,"CC1CCCN(c2cnc(-c3cccc(Cc4nn(-c5cnn(C)c5)ccc4=O)c3)nc2)C1 (racemic) [Example 469, rac-3-{3-[5-(3-methyl-piperidin-1-yl)pyrimidin-2-yl]benzyl}-1-(1-methyl-1H-pyrazol-4-yl)pyridazin-4(1H)-one]",< 100
16,"O=C(Nc1cccc(Cc2nn(-c3cc(F)cc(F)c3)ccc2=O)c1)OCCN1CCOCC1 [Example 523, 2-morpholin-4-ylethyl (3-{[1-(3,5-difluorophenyl)-4-oxo-1,4-dihydropyridazin-3-yl]methyl}phenyl)carbamate]",< 100
17,"COc1cnc(-c2cccc(C(CO)c3nn(-c4cnn(C)c4)ccc3=O)c2)nc1 (racemic) [Example 254, rac-3-{2-Hydroxy-1-[3-(5-methoxypyrimidin-2-yl)phenyl]ethyl}-1-(1-methyl-1H-pyrazol-4-yl)pyridazin-4(1H)-one]",1000 to 3000
